Laboratory results: ChEMBL document CHEMBL1201862, “PubChem BioAssay data set” (2004)
Activity calls are given as the source filed them.

How the values were obtained:
Cytochrome P450 3A4 = Cytochrome P450 3A4 (Homo sapiens, UniProt P08684);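 further: CYP3A4 tested as one member of a cytochrome P450 panel screen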
Cytochrome P450 1A2 = molecular target: T1, Cytochrome P450 1A2 (Homo sapiens, UniProt P05177);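 further: PubChem cytochrome P450 panel assay, CYP1A2 panel member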
T1 sequence (P05177 whole entry): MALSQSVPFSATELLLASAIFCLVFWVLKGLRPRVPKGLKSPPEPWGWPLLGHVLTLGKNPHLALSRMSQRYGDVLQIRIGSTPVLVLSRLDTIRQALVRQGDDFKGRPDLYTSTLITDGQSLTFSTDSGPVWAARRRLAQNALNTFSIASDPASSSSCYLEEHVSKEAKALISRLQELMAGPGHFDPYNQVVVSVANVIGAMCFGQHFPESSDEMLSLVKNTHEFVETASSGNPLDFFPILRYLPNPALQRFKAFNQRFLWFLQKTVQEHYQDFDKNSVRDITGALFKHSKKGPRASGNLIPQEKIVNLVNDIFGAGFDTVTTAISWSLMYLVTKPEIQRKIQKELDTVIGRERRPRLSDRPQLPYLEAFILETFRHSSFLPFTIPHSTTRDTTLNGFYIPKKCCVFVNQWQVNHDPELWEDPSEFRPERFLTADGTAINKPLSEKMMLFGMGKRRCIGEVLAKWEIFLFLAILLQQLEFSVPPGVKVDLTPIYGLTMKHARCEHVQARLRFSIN

[1] = viability of uninfected HEp-2 cells – cell-based, HTS, cytotoxicity control for RSV inhibitor project, dose response (AID 2410); format: functional; conditions: human respiratory syncytial virus
[2] = molecular target: T2, Corticotropin-releasing factor receptor 2/Corticotropin-releasing factor-binding protein (Homo sapiens, UniProt P24387+Q13324); assay: activators of CRF receptor 2 with binding protein – uHTS hits, confirmation (AID 602473); format: functional; conditions: read-out: EC50_Mean
T2 sequence (Q13324 whole entry): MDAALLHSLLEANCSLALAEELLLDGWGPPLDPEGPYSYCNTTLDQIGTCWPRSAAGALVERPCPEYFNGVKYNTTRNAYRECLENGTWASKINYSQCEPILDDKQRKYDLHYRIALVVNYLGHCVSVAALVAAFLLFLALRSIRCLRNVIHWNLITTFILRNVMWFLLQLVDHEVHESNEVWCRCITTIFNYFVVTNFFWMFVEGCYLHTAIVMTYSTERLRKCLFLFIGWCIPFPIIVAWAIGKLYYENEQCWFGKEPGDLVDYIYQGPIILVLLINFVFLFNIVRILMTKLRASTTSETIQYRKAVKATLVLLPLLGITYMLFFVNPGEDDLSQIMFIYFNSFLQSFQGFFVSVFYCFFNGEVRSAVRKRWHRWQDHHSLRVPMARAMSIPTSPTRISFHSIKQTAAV
T2 sequence (P24387 whole entry): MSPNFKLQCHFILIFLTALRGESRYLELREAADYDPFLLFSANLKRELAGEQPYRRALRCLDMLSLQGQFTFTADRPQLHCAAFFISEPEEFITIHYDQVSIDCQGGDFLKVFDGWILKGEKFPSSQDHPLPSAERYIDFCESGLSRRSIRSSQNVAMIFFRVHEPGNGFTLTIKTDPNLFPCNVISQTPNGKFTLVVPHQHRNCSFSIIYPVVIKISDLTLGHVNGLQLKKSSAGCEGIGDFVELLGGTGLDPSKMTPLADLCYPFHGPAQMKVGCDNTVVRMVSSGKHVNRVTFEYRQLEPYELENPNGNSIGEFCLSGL

[3] = molecular target: T3, Rac GTPase-activating protein 1 (Homo sapiens, UniProt Q9H0H5); assay: blockers of MgcRacGAP-driven Rac1 GTP hydrolysis – biochemical, ADP Hunter fluorescence, primary and confirmatory, confirmation (AID 624330); format: functional
T3 sequence (Q9H0H5 whole entry): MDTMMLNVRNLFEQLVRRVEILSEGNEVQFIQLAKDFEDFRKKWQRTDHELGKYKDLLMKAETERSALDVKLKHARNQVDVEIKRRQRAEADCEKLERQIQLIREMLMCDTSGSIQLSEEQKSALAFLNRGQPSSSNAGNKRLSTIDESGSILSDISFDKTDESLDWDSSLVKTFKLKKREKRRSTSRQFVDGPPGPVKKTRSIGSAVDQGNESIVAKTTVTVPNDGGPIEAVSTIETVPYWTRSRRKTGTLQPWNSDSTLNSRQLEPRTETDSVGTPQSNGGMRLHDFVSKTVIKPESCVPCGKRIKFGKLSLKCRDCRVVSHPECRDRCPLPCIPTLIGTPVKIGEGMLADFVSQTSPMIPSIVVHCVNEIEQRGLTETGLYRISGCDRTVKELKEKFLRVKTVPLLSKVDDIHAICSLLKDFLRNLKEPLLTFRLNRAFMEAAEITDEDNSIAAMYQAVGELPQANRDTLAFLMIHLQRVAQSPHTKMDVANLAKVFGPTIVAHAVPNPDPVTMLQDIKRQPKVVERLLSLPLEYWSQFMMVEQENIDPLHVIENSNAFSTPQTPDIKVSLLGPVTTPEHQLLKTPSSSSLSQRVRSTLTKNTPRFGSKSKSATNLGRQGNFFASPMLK

Cytochrome P450 2C9 = Cytochrome P450 2C9 (Homo sapiens, UniProt P11712)
Chain of Cytochrome P450 2C9 (P11712 whole entry): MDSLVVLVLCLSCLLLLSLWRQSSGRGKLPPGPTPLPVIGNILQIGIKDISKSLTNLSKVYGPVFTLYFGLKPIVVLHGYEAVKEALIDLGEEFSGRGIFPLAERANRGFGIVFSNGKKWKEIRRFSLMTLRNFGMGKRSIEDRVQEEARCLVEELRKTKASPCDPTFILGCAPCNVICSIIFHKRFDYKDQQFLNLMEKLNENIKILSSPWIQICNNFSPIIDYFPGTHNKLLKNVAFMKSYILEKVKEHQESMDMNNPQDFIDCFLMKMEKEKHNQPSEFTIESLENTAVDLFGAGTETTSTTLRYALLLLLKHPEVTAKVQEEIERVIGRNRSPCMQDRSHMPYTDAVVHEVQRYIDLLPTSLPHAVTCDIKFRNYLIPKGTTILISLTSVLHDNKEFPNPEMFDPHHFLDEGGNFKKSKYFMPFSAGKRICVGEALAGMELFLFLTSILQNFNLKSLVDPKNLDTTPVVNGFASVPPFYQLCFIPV

[4] = molecular target: T4, Heat shock factor protein 1 (Mus musculus, UniProt P38532); assay: enhancement of HSF1-driven luciferase signal – cell-based, NIH3T3, luminescence, dose retest, confirmation (AID 435004); format: functional;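 further: stress induced by proteasome inhibitor MG132 added 30 min after compound; luciferase reporter driven by HSF1 response element in NIH3T3 cells; actives raise luminescence as potentiators of the MG132 stress response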
T4 sequence (P38532 whole entry): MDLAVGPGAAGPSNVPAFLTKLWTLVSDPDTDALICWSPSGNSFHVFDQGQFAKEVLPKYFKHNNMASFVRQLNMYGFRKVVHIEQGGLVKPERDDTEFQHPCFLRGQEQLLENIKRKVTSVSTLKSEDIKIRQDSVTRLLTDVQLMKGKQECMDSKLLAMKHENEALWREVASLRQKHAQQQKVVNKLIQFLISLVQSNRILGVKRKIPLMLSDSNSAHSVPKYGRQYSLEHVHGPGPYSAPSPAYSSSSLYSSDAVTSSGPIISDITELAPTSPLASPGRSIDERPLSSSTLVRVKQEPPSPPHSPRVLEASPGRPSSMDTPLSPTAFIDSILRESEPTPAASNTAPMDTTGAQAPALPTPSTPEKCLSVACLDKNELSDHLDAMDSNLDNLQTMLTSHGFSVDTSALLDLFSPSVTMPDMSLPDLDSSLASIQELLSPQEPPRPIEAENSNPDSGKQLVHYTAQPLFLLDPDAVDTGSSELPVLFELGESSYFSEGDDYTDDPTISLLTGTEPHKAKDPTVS

Cytochrome P450 2C19 = Cytochrome P450 2C19 (Homo sapiens, UniProt P33261); assay: Cytochrome panel assay with activity outcomes. Panel member name: p450-cyp2c19 Compounds with AC50 equal or less than 10 uM are considered active; format: functional; conditions: read-out: AC50
Chain of Cytochrome P450 2C19 (P33261 whole entry): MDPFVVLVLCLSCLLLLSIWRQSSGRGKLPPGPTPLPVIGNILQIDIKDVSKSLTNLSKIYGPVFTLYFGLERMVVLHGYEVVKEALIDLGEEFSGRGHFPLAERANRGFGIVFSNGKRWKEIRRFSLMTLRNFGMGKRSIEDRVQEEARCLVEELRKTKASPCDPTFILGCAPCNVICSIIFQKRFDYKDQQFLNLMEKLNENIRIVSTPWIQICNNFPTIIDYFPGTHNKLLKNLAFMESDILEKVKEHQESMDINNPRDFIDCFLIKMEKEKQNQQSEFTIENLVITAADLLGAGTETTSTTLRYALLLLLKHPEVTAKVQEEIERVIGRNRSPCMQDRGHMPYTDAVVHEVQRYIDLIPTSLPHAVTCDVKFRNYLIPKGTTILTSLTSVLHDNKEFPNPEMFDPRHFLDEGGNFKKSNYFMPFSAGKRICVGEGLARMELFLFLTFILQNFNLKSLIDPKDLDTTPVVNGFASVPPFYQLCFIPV

[5] = NIH3T3 cell viability loss – ATP luminescence, mouse fibroblasts, counter-screen, dose response (AID 2010); format: functional, cell-based;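 further: cells exposed to compound for about 90 hours before reading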
[6] = Trypanosoma cruzi growth suppression in host cells – NIH3T3 host cells, beta-gal luminescence, confirmation (AID 2044); format: functional, cell-based;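 further: intracellular parasites grown in NIH/3T3 mouse fibroblasts as host cells; luminescent beta-galactosidase reporter signal from transgenic T. cruzi replicating inside host cells; inhibitors lower the luminescence signal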
[7] = Luminescence Cell-Based Dose Response HTS to Identify Inhibitors of 5'UTR Stem-Loop Driven Prion Protein mRNA Translation in H4 Neuroglioblastoma Cells. [Related pubchem assays: 1827 (Project Summary), 1813 (Primary HTS)]; format: functional
[8] = luciferase reporter signal suppression in cells – H4 neuroglioma cells, luminescence, dose response (AID 1990); format: functional, cell-based
[9] = molecular target: T5, Zinc finger protein mex-5 (Caenorhabditis elegans, UniProt Q9XUB2); assay: potency of MEX-5 RNA-binding blockers – biochemical, C. elegans, fluorescence polarization, dose response (AID 1960)
T5 sequence (Q9XUB2 whole entry): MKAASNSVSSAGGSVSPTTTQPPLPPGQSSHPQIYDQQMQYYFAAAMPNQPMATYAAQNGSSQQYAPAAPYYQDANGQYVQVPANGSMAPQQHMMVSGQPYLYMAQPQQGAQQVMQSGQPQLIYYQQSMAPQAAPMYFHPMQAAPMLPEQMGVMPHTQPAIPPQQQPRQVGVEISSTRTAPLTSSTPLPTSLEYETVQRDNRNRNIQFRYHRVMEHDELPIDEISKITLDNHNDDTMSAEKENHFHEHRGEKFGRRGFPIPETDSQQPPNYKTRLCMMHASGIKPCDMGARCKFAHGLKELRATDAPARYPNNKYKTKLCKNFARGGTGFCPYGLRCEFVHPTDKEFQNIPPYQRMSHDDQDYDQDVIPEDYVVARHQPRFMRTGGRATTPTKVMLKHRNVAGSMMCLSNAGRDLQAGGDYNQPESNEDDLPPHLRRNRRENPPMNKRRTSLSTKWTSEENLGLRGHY

[10] = molecular target: T6, RNA-binding protein pos-1 (Caenorhabditis elegans, UniProt G5EF15); assay: disruptors of C. elegans POS-1 RNA interaction – biochemical, fluorescence polarization, dose response (AID 1964);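 further: purified POS-1 fused to maltose binding protein made in E. coli; potency of compounds blocking POS-1 binding to fluorescent RNA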
T6 sequence (G5EF15 whole entry): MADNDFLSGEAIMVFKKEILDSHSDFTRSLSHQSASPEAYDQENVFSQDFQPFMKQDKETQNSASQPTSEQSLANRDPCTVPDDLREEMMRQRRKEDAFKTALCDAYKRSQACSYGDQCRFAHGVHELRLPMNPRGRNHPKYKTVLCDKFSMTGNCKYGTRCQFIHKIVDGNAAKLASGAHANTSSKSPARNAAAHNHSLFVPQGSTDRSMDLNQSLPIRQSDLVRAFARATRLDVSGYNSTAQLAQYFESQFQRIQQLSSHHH

Chain of Cytochrome P450 3A4 (P08684 whole entry): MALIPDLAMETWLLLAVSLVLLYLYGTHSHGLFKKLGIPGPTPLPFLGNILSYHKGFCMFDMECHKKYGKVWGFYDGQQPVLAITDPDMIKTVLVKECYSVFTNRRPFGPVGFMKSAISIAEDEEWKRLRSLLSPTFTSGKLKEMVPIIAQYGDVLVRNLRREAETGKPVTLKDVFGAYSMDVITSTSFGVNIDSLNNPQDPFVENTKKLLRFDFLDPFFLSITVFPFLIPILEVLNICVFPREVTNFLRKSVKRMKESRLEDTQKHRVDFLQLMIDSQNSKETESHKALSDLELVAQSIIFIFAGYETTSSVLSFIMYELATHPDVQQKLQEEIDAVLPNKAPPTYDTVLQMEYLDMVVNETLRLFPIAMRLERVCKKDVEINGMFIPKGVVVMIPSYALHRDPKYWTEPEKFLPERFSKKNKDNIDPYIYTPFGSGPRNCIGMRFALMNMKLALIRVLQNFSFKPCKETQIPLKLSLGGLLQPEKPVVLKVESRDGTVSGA

Nc1nc(SCc2ccc([N+](=O)[O-])cc2)c2ncn([C@@H]3O[C@@H](CO)[C@@H](O)[C@H]3O)c2n1
AC50 (Cytochrome P450 3A4): 15.8 µM (inconclusive)

O=C1C(Cc2ccccc2)NC(=S)N1c1ccccc1 (centres undefined)
AC50 (Cytochrome P450 3A4): 2.24 µM (inconclusive) | AC50 (Cytochrome P450 1A2): 2.24 µM (inconclusive)

Cc1nc(SCc2ccccc2F)c2cnn(-c3ccccc3)c2n1
CC50 [1]: 28.5 µM (active)

N#Cc1nc(COc2ccccc2Cl)oc1N1CCCC1
CC50 [1]: 41.5 µM (active)

COc1ccccc1NC(=O)COc1ccc(Br)cc1CO
CC50 [1]: > 50 µM (active)

CCOC(=O)/C(C#N)=C(C)/C=C1\Sc2ccccc2N1CC
EC50 [2]: 18.4 µM (active)

COC(=O)CCNCCSc1nnc(-c2ccco2)n1Cc1ccccc1
IC50 [3]: 98.5 µM (active)

CCc1ccccc1NS(=O)(=O)c1ccc(OC)c2ncccc12
CC50 [1]: 16 µM (active)

Cc1nc2ccc3nc(NC(=O)C4COc5ccccc5O4)sc3c2s1 (centres undefined)
CC50 [1]: 41.4 µM (active)

COC(=O)COc1ccc(Oc2nc(SC)nc(N(C)C)n2)nn1
EC50 [2]: > 53 µM (inactive)

Cc1cc(C)c(S(=O)(=O)n2ccc(-c3ccc(OCCN(C)c4ccccn4)cc3)n2)c(C)c1
AC50 (Cytochrome P450 2C9): 1.78 µM (inconclusive) | EC50 [4]: > 260 µM (inactive) | AC50 (Cytochrome P450 2C19): 0.631 µM (inconclusive) | AC50 (Cytochrome P450 1A2): 14.1 µM (inconclusive)

CCOc1ccc(NC2c3ccccc3C(=O)N2Cc2ccc3c(c2)OCO3)cc1 (centres undefined)
CC50 [1]: 14.6 µM (active)

CCOc1ccccc1C1CC(c2cccc(NS(C)(=O)=O)c2)=NN1C(=O)c1ccccc1 (centres undefined)
CC50 [1]: 35.5 µM (active)

CC(C)(C)NC(=O)C(c1ccncc1)N(Cc1ccc(F)cc1)C(=O)c1ccc(-c2ccccc2)[nH]1 (centres undefined)
EC50 [5]: > 60 µM (inconclusive) | EC50 [6]: 0.681 µM (active) | CC50 [1]: 14.6 µM (active)

N#Cc1ccc(CN2CCC3(CC2)CCN(C(=O)c2ccncc2)CC3)cc1
AC50 (Cytochrome P450 3A4): 12.6 µM (inconclusive)

COC(=O)c1cc2sc(Cl)cc2n1CC(=O)Nc1ccc(OC)c(OC)c1OC
EC50 [2]: > 53 µM (inactive)

Cc1c(OCC(=O)NCc2ccccn2)ccc2c3c(c(=O)oc12)CCCC3
CC50 [1]: 21.2 µM (active)

Nc1ccc(C(=O)n2c3ccccc3c3ccccc32)cc1
EC50 [7]: 9.6 µM (active) | EC50 [8]: 9.05 µM (active)

Cc1ccc2sc(O)nc2c1
CC50 [1]: 19.7 µM (active)

CC(C)C(=O)Nc1cc2c(cc1C(=O)c1ccccc1)OCCO2
AC50 (Cytochrome P450 3A4): 22.4 µM (inconclusive)

CC(C(=O)Nc1ccc2c(c1)OCCO2)c1ccc([N+](=O)[O-])cc1 (centres undefined)
EC50 [2]: 10.7 µM (active)

COc1cc(/C(C)=N\NC(=O)CSc2nc3ccccc3n2C)ccc1O
IC50 [3]: 41.6 µM (active)

CCOc1cc(/C=N/Nc2nc(O)nnc2C)ccc1O
IC50 [3]: 40.2 µM (active)

Cc1ccc(-c2ccc(/C=N/n3cnnc3)o2)cc1Cl
CC50 [1]: 49.7 µM (active)

COc1ccc(/C=N/NC(=S)NC2CCS(=O)(=O)C2)cc1OC (centres undefined)
AC50 (Cytochrome P450 3A4): 22.4 µM (inconclusive)

CCOC(=O)N/N=C/c1ccc(N2CCOCC2)s1
IC50 [3]: 52.6 µM (active)

CCN(CC)Cc1c(C(=O)N/N=C/c2cccc(OCc3cccc(Cl)c3)c2)nnn1-c1nonc1N
CC50 [1]: 18.3 µM (active)

CCOC(=O)c1c(NC=C2C(=O)CCCC2=O)sc(C)c1C
IC50 [3]: 102 µM (active)

O=C(/C=C/c1ccc(O)c(O)c1)OC(Cc1ccc(O)c(O)c1)C(=O)O (centres undefined)
IC50 [3]: 35 µM (active) | EC50 [9]: 8.75 µM (active) | EC50 [10]: 13.6 µM (active)

Nc1ccc(Sc2ccc(N)cc2)cc1 [4,4'-THIODIANILINE]
IC50 [3]: 13.2 µM (active)
